In ChEMBL document CHEMBL1201862, “PubChem BioAssay data set” (2004):
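Cells were grown in 96-well plates and exposed to each compound for 48 hours at five concentrations; endpoints were interpolated linearly between bracketing concentrations, or set to the highest concentration if not reached. Here, GI50 denotes the concentration required for 50% inhibition of growth.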 Activity calls are given as the source filed them. Rule as the data show it: active = GI50 up to about 1.1 µM and inactive = higher.

Legend:
Assay in all cases: NCI anticancer screen, dose series, 48 h
786-0 = system: 786-0
A549 = system: A549
EKVX = system: EKVX
HCT-15 = system: HCT-15
HL-60 = system: HL-60
HOP-62 = system: HOP-62
IGROV-1 = system: IGROV-1
KM12 = system: KM12
LOX IMVI = system: LOX IMVI
MOLT-4 = system: MOLT-4
Malme-3M = system: Malme-3M
NCI-H23 = system: NCI-H23
NCI-H522 = system: NCI-H522
SF-268 = system: SF-268
SK-MEL-2 = system: SK-MEL-2
SNB-19 = system: SNB-19
SW-620 = system: SW-620
UACC-62 = system: UACC-62
UO-31 = system: UO-31
SNB-75 = system: SNB-75

| Structure (SMILES) | GI50 (786-0) | GI50 (A549) | GI50 (EKVX) | GI50 (HCT-15) [µM] | GI50 (HL-60) | GI50 (HOP-62) | GI50 (IGROV-1) | GI50 (KM12) | GI50 (LOX IMVI) | GI50 (MOLT-4) | GI50 (Malme-3M) | GI50 (NCI-H23) | GI50 (NCI-H522) | GI50 (SF-268) | GI50 (SK-MEL-2) | GI50 (SNB-19) | GI50 (SW-620) | GI50 (UACC-62) | GI50 (UO-31) | GI50 (SNB-75) |
| --- | --- | --- | --- | --- | --- | --- | --- | --- | --- | --- | --- | --- | --- | --- | --- | --- | --- | --- | --- | --- |
| CN(C)CCNc1ccccn1 | > 100 µM (inactive) | > 100 µM (inactive) | > 100 µM (inactive) | > 100 | > 100 µM (inactive) | > 100 µM (inactive) | > 100 µM (inactive) | > 100 µM (inactive) | > 100 µM (inactive) | > 100 µM (inactive) | > 100 µM (inactive) | > 100 µM (inactive) | > 100 µM (inactive) | > 100 µM (inactive) | > 100 µM (inactive) | > 100 µM (inactive) | > 100 µM (inactive) | > 100 µM (inactive) | > 100 µM (inactive) |  |
| CN1CN(c2ccccc2)C2(CCN(CC(C)(c3ccc(F)cc3)C3OCCCO3)CC2)C1=O (stereo not given) | 20.4 µM (inactive) | 25.9 µM (inactive) | 16.7 µM (inactive) | 15.3 | 14.7 µM (inactive) | 16.6 µM (inactive) | 18.5 µM (inactive) | 15.5 µM (inactive) | 17.5 µM (inactive) | 9.71 µM (inactive) | 15.6 µM (inactive) | 14.9 µM (inactive) | 16.8 µM (inactive) | 17.8 µM (inactive) |  | 17.3 µM (inactive) | 20.6 µM (inactive) | 17.9 µM (inactive) | 2.32 µM (inactive) | 18.7 µM (inactive) |
| CCN1CN(c2ccccc2)C2(CCN(CCCSc3ccc(F)cc3)CC2)C1=O | 13.7 µM (inactive) | 6.12 µM (inactive) | 4.89 µM (inactive) | 11 | 10.8 µM (inactive) | 4.31 µM (inactive) | 5.3 µM (inactive) | 14.3 µM (inactive) | 14.3 µM (inactive) | 4.88 µM (inactive) | 19.9 µM (inactive) | 10.4 µM (inactive) | 15 µM (inactive) | 13.9 µM (inactive) |  | 10.1 µM (inactive) | 7.29 µM (inactive) | 15.1 µM (inactive) | 5.97 µM (inactive) | 16.4 µM (inactive) |
| Fc1cccc(C2SCc3nc4ccccc4n32)c1 (stereo not given) | > 100 µM (inactive) | 43.1 µM (inactive) | 32.4 µM (inactive) |  | 11 µM (inactive) |  | 39.6 µM (inactive) | 39.1 µM (inactive) |  | 33.8 µM (inactive) | 36.4 µM (inactive) | 19.6 µM (inactive) | 20.2 µM (inactive) | 75.3 µM (inactive) | 42.3 µM (inactive) | 75.5 µM (inactive) | 54.8 µM (inactive) | 40.1 µM (inactive) | 33.8 µM (inactive) | 36.4 µM (inactive) |
| CCOC(=O)C(C)(C)/C=C\C(Cl)=C(Cl)Cl | > 100 µM (inactive) | > 100 µM (inactive) | > 100 µM (inactive) |  | > 100 µM (inactive) | > 100 µM (inactive) | > 100 µM (inactive) | > 100 µM (inactive) | > 100 µM (inactive) | > 100 µM (inactive) | > 100 µM (inactive) | > 100 µM (inactive) | > 100 µM (inactive) | > 100 µM (inactive) |  | > 100 µM (inactive) | > 100 µM (inactive) | > 100 µM (inactive) | > 100 µM (inactive) | > 100 µM (inactive) |
| CCOC1(OCC)N=C(N)C2(C#N)C3(C(=O)N(C(C)C)N=C3C)C12C#N (stereo not given) | > 100 µM (inactive) | > 100 µM (inactive) | > 100 µM (inactive) | > 100 | 0.893 µM (active) | > 100 µM (inactive) | > 100 µM (inactive) | > 100 µM (inactive) |  | > 100 µM (inactive) | > 100 µM (inactive) | > 100 µM (inactive) | 79.1 µM (inactive) | > 100 µM (inactive) | > 100 µM (inactive) | > 100 µM (inactive) | > 100 µM (inactive) | > 100 µM (inactive) | > 100 µM (inactive) | > 100 µM (inactive) |
| N#C/C(=C1\OC(=O)C(c2ccc(Br)cc2)=C1O)c1ccc(Br)cc1 | 14.7 µM (inactive) | 18 µM (inactive) | 17.5 µM (inactive) |  | 11.6 µM (inactive) | 19.2 µM (inactive) | 14.2 µM (inactive) | 14.9 µM (inactive) | 15 µM (inactive) | 17.2 µM (inactive) | 16.9 µM (inactive) | 12.9 µM (inactive) | 12.4 µM (inactive) | 14.7 µM (inactive) |  | 14.4 µM (inactive) | 14.3 µM (inactive) | 11.6 µM (inactive) | 15.1 µM (inactive) | 17.6 µM (inactive) |
| O=C1c2ccccc2C(=O)N1C/C=N/NS(=O)(=O)c1ccc(Br)cc1 | > 100 µM (inactive) | > 100 µM (inactive) | > 100 µM (inactive) | > 100 | > 100 µM (inactive) | > 100 µM (inactive) | > 100 µM (inactive) | > 100 µM (inactive) |  | > 100 µM (inactive) | > 100 µM (inactive) | > 100 µM (inactive) | > 100 µM (inactive) | > 100 µM (inactive) | > 100 µM (inactive) | > 100 µM (inactive) | > 100 µM (inactive) | > 100 µM (inactive) | > 100 µM (inactive) | > 100 µM (inactive) |
| CCOC(=O)CCC(NC(=O)c1ccc(Oc2nc3c(N)cc(C(F)(F)F)cc3nc2-c2ccccc2)cc1)C(=O)OCC (stereo not given) | 3.42 µM (inactive) | 7.78 µM (inactive) | 47.1 µM (inactive) | > 100 | 38.8 µM (inactive) | 6.98 µM (inactive) | 33.4 µM (inactive) | 19.5 µM (inactive) | > 27.1 µM (inactive) | > 100 µM (inactive) | 12.4 µM (inactive) | 21.3 µM (inactive) | 5.96 µM (inactive) | 13.8 µM (inactive) |  | 30.5 µM (inactive) | > 100 µM (inactive) | > 46.3 µM (inactive) | 70 µM (inactive) | 5.05 µM (inactive) |
| N#Cc1nc(-c2ccccn2)oc1N | > 100 µM (inactive) |  | > 100 µM (inactive) | > 100 | > 100 µM (inactive) | > 100 µM (inactive) | > 100 µM (inactive) | > 100 µM (inactive) | > 100 µM (inactive) | > 100 µM (inactive) | > 100 µM (inactive) | > 100 µM (inactive) | > 100 µM (inactive) | > 100 µM (inactive) | > 100 µM (inactive) | > 100 µM (inactive) | > 100 µM (inactive) | > 100 µM (inactive) | > 100 µM (inactive) |  |
| C=CSCCC(N)C(=O)O (stereo not given) | > 100 µM (inactive) | > 100 µM (inactive) | > 100 µM (inactive) | > 100 | > 100 µM (inactive) | > 100 µM (inactive) | > 100 µM (inactive) | > 100 µM (inactive) | > 100 µM (inactive) | > 100 µM (inactive) | > 100 µM (inactive) | > 100 µM (inactive) | > 100 µM (inactive) | > 100 µM (inactive) |  | > 100 µM (inactive) | > 100 µM (inactive) | > 100 µM (inactive) | > 100 µM (inactive) | > 100 µM (inactive) |
| CC(=O)OC1CCn2nnc(CO)c21 (stereo not given) | > 100 µM (inactive) | > 100 µM (inactive) | > 100 µM (inactive) | > 100 |  |  | > 100 µM (inactive) | > 100 µM (inactive) |  | > 100 µM (inactive) | > 100 µM (inactive) | > 100 µM (inactive) | > 100 µM (inactive) |  | > 100 µM (inactive) | > 100 µM (inactive) | > 100 µM (inactive) | > 100 µM (inactive) | > 100 µM (inactive) | 23.8 µM (inactive) |
| CC1=CC(=O)C(=O)C2=C1OC1(C2)C(C)CCC2C3(C)CCC(O)C(C)(C)C3CCC21C (stereo not given) | 17.4 µM (inactive) | 33.3 µM (inactive) |  | 19.4 | 2.22 µM (inactive) | 19.2 µM (inactive) | 17.6 µM (inactive) | 15.7 µM (inactive) | 16.7 µM (inactive) | 17.1 µM (inactive) | 19.8 µM (inactive) | 15.8 µM (inactive) | 15.2 µM (inactive) | 26.4 µM (inactive) |  | 16.8 µM (inactive) | 22.1 µM (inactive) | 15.8 µM (inactive) | 18.4 µM (inactive) | 48.4 µM (inactive) |
| [O-][n+]1onc2c1-c1nonc1CC2 | 43.7 µM (inactive) | 72.1 µM (inactive) | 25.9 µM (inactive) | 62.8 | 34.5 µM (inactive) | 28.2 µM (inactive) | 38.8 µM (inactive) | 45.3 µM (inactive) | 22.4 µM (inactive) | 19.2 µM (inactive) | 11.9 µM (inactive) | 23.8 µM (inactive) | 31 µM (inactive) | 36.5 µM (inactive) | 24.1 µM (inactive) | > 100 µM (inactive) | 45.1 µM (inactive) | 36.6 µM (inactive) | 48.6 µM (inactive) |  |
| COC(=O)CC(=O)OC1C[C@@H]2CCC3C(C)(C)CCC[C@]3(C)C23CC[C@@]1(C)C3 (stereo not given in full) | 16.3 µM (inactive) | 24.5 µM (inactive) |  | 19.9 | > 100 µM (inactive) | 19.3 µM (inactive) | 16.9 µM (inactive) | 18.5 µM (inactive) | 17.8 µM (inactive) | 53.8 µM (inactive) | 17.9 µM (inactive) | 18.4 µM (inactive) | 12.9 µM (inactive) | 18.5 µM (inactive) |  | 17.4 µM (inactive) | 18.2 µM (inactive) | 16.3 µM (inactive) | 19.4 µM (inactive) | 27.9 µM (inactive) |
